According to US20110217300A1, “Quinazolinone Compounds and Methods of Use Thereof” (priority 2007, published 2011):
Read-outs that look alike come from different tables or passages of the source.

Assays:
A549 = experiment: MTS cell viability assay; type: cell-based; conditions: Homo sapiens, read-out: MTS NCI A549 GI50
Summary of the method: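 A549 and a second human cancer line seeded in DMEM/10% FBS, allowed 16–24 h to attach, then exposed 72 h at 37 °C, 5% CO2 to serially diluted compound (final DMSO 0.33%). Viability measured by MTS.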

HsEg5 [1] = biological target: T1, HsEg5 (Homo sapiens, UniProt P52732); experiment: Fluorescence detection of HsEg5 ATPase activity (ADP Quest, automated); type: biochemical
T1 sequence (P52732 18-359 limits assumed): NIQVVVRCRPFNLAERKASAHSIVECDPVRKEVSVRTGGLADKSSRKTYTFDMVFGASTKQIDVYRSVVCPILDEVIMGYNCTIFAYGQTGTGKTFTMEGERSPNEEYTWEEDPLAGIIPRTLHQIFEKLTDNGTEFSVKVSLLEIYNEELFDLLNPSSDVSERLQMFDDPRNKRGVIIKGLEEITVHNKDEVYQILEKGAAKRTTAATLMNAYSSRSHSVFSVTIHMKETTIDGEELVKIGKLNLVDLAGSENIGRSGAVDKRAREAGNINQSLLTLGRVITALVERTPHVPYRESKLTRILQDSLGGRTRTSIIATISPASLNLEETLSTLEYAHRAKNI
Summary of the method: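 Microtubule-activated HsEg5 motor fragment (10 nM, 500 nM MTs) preincubated 10 min with compound, then 20 μM ATP for 10 min at room temperature in Pipes pH 7.0, MgCl2, paclitaxel, 0.3% DMSO. ADP detected via coupled-enzyme resorufin fluorescence; IC50 over 100 μM–5 nM.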

NCI-H460 = experiment: MTS cell viability assay; type: cell-based, human; conditions: Homo sapiens, NCI-H460, 72 h
Summary of the method: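 Seed 100-5000 cells/well, rest 16-24 h; add compound diluted from DMSO stocks (final DMSO 0.33%); incubate 72 h at 37° C.; add MTS/PMS 4 h; stop with 1.4% SDS; read […]. GI50 calculated.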

HsEg5 [2] = biological target: T1, HsEg5; experiment: Luminescent detection of HsEg5 ATPase activity (Kinase-Glo Plus); type: biochemical
Description: Purified HsEg5 motor fragment was activated by mixture with preformed MT polymer (Cytoskeleton, Denver, Colo.) at room temperature for 20 minutes. MT activated ATPase activity was measured using Kinase-Glo® Plus Luminescent Kinase Assay (Promega, Madison, Wis.).
For inhibitor screening, 5 μL of compounds were incubated with 20 μL of MT-activated HsEg5 such that the final concentrations for compound range from 100 μM to 5 nM (1 to 3 serial dilutions, final concentration) and final concentration for HsEg5 is 25 nM. The mixture was incubated at room temperature for 20 minutes with mild shaking. The screening assay contained 0.3% DMSO in all reaction wells. We used wells containing only DMSO as negative controls and wells without ATP as background. Addition of 15 μL of 13 μM ATP (final concentration of 5 μM) initiated the ATP hydrolysis reaction. The 40 μL-reaction was allowed to proceed at room temperature for 45 minutes before addition of 40 μL of Kinase®-Glo Plus. After 15-minute development at room temperature, the luminescent was measured.
Eg5 IC50 data was generated using both fluorescence and Luminescence detection assays as described above. Compounds I-69 were screened using automated fluorescence assay while compounds 70-83 were screened using Luminescence detection assay. (See reference “Zhang B, Senator D, Wilson C J, Ng S C. (2005) “Development of a high-throughput robotic fluorescence-based assay for HsEg5 inhibitor screening” Anal Biochem. 345:326-335″).

[3] = A549 non small cell lung, 72 hours

NCCCN(C(=O)c1ccc(F)c(F)c1F)C(Cc1ccc(O)cc1)c1nc2cc(Cl)ccc2c(=O)n1Nc1ccccc1 (stereo not shown) [Compound 55, N-(3-Aminopropyl)-N-[1-(3-anilino-7-chloro-4-oxo-3,4-dihydroquinazolin-2-yl)-2-(4-hydroxyphenyl)ethyl]-2,3,4-trifluorobenzamide]
GI50 (A549; A549, 72 h, A549 non small cell lung, 72 hours): 33700 nM
IC50 (HsEg5 [1]): 4160 nM
GI50 (NCI-H460; read-out: MTS NCI H460 GI50, NCI-H460 non small cell lung, 72 hours): 16100 nM

C#CCC(c1nc2cc(Cl)ccc2c(=O)n1Nc1ccccc1)N(CCCN)C(=O)c1cc(F)c(Cl)cc1F (stereo not shown) [Compound 56, N-(3-Aminopropyl)-N-[1-(3-anilino-7-chloro-4-oxo-3,4-dihydroquinazolin-2-yl)but-3-yn-1-yl]-4-chloro-2,5-difluorobenzamide]
GI50 (A549; [3]): 3820 nM
IC50 (HsEg5 [1]): 138 nM
GI50 (NCI-H460; read-out: MTS NCI H460 GI50): 1860 nM

C#CCC(c1nc2cc(Cl)ccc2c(=O)n1Nc1ccccc1)N(CCCN)C(=O)c1cccc(Cl)c1F (stereo not shown) [Compound 57, N-(3-Aminopropyl)-N-[1-(3-anilino-7-chloro-4-oxo-3,4-dihydroquinazolin-2-yl)but-3-yn-1-yl]-3-chloro-2-fluorobenzamide]
GI50 (A549; [3]): 433 nM
IC50 (HsEg5 [1]): 50.6 nM
GI50 (NCI-H460; read-out: MTS NCI H460 GI50): 766 nM

CC(C)(C)CC(c1nc2cc(Cl)ccc2c(=O)n1Nc1ccccc1)N(CCCN)C(=O)c1ccc(Br)cc1 (stereo not shown) [Compound 58, N-(3-Aminopropyl)-N-[1-(3-anilino-7-chloro-4-oxo-3,4-dihydroquinazolin-2-yl)-3,3-dimethylbutyl]-4-bromobenzamide]
GI50 (A549; [3]): 5880 nM
IC50 (HsEg5 [1]): 3690 nM
GI50 (NCI-H460; read-out: MTS NCI H460 GI50): 5550 nM

CCC(c1nc2cc(Cl)ccc2c(=O)n1Nc1ccccc1)N(CCN)C(=O)c1ccc(C)cc1 (stereo not shown) [Compound 61, N-(2-Aminoethyl)-N-[1-(3-anilino-7-chloro-4-oxo-3,4-dihydroquinazolin-2-yl)propyl]-4-methylbenzamide]
GI50 (A549; [3]): 14200 nM
IC50 (HsEg5 [1]): 3890 nM
GI50 (NCI-H460; read-out: MTS NCI H460 GI50): 12500 nM

CCC(c1nc2cc(Cl)ccc2c(=O)n1Nc1ccccc1)N(CCN)C(=O)c1c(F)ccc(C)c1F (stereo not shown) [Compound 62, N-(2-Aminoethyl)-N-[1-(3-anilino-7-chloro-4-oxo-3,4-dihydroquinazolin-2-yl)propyl]-2,6-difluoro-3-methylbenzamide]
GI50 (A549; [3]): 21700 nM
IC50 (HsEg5 [1]): 3740 nM
GI50 (NCI-H460; read-out: MTS NCI H460 GI50): 22800 nM

CCC(c1nc2cc(Cl)ccc2c(=O)n1Nc1ccccc1)N(CCN)C(=O)c1ccc(F)c(C)c1 (stereo not shown) [Compound 63, N-(2-Aminoethyl)-N-[1-(3-anilino-7-chloro-4-oxo-3,4-dihydroquinazolin-2-yl)propyl]-4-fluoro-3-methylbenzamide]
GI50 (A549; [3]): 7020 nM
IC50 (HsEg5 [1]): 3340 nM
GI50 (NCI-H460; read-out: MTS NCI H460 GI50): 10500 nM

CCC(c1nc2cc(Cl)ccc2c(=O)n1Nc1ccccc1)N(CCN)C(=O)c1cccc(Cl)c1F (stereo not shown) [Compound 64, N-(2-Aminoethyl)-N-[1-(3-anilino-7-chloro-4-oxo-3,4-dihydroquinazolin-2-yl)propyl]-3-chloro-2-fluorobenzamide]
GI50 (A549; [3]): 12600 nM
IC50 (HsEg5 [1]): 1460 nM
GI50 (NCI-H460; read-out: MTS NCI H460 GI50): 6810 nM

CCC(c1nc2cc(Cl)ccc2c(=O)n1Nc1ccccc1)N(CCN)C(=O)c1ccc(C)c(F)c1F (stereo not shown) [Compound 65, N-(2-Aminoethyl)-N-[1-(3-anilino-7-chloro-4-oxo-3,4-dihydroquinazolin-2-yl)propyl]-2,3-difluoro-4-methylbenzamide]
GI50 (A549; [3]): 12400 nM
IC50 (HsEg5 [1]): 4080 nM
GI50 (NCI-H460; read-out: MTS NCI H460 GI50): 11400 nM

CCC(c1nc2cc(Cl)ccc2c(=O)n1Nc1ccccc1)N(CCCN)Cc1ccc(C)cc1 (stereo not shown) [Compound 67, 2-{1-[(3-Aminopropyl)(4-methyl-benzyl)amino]propyl}-3-anilino-7-chloro-3H-quinazolin-4-one]
GI50 (A549; [3]): 15500 nM
IC50 (HsEg5 [1]): 8300 nM
GI50 (NCI-H460; read-out: MTS NCI H460 GI50): 13100 nM

C#CC[C@H](c1nc2cc(Cl)ccc2c(=O)n1Nc1ccccc1)N(CCCN)C(=O)c1c(F)c(F)cc(F)c1F [Compound 71]
GI50 (A549; A549, 72 h): 840 nM
IC50 (HsEg5 [2]): 160 nM
GI50 (NCI-H460; read-out: MTS NCI H460 GI50): 320 nM

C#CC[C@H](c1nc2cc(Cl)ccc2c(=O)n1Nc1ccccc1)N(CCCN)C(=O)c1cc(F)c(F)c(F)c1F [Compound 72, (R)—N-(3-Aminopropyl)-N-(1-(7-chloro-4-oxo-3-(phenylamino)-3,4-dihydroquinazolin-2-yl)but-3-ynyl)-2,3,4,5-tetrafluorobenzamide]
GI50 (A549; A549, 72 h): 620 nM
IC50 (HsEg5 [2]): 40 nM
GI50 (NCI-H460; read-out: MTS NCI H460 GI50): 330 nM

C#CC[C@H](c1nc2cc(Cl)ccc2c(=O)n1Nc1ccccc1)N(CCCN)C(=O)c1cc2ccccc2s1 [Compound 73, (R)—N-(3-Aminopropyl)-N-(1-(7-chloro-4-oxo-3-(phenylamino)-3,4-dihydroquinazolin-2-yl)but-3-ynyl)benzo[b]thiophene-2-carboxamide]
GI50 (A549; A549, 72 h): 490 nM
IC50 (HsEg5 [2]): 120 nM
GI50 (NCI-H460; read-out: MTS NCI H460 GI50): 330 nM

CC#CCC(c1nc2cc(Cl)ccc2c(=O)n1Nc1ccccc1)N(CCCN)C(=O)c1cccc(Cl)c1F (stereo not shown) [Compound 74, N-(3-Aminopropyl)-3-chloro-N-(1-(7-chloro-4-oxo-3-(phenylamino)-3,4-dihydroquinazolin-2-yl)pent-3-ynyl)-2-fluorobenzamide]
GI50 (A549; A549, 72 h): 1800 nM
IC50 (HsEg5 [2]): 5900 nM
GI50 (NCI-H460; read-out: MTS NCI H460 GI50): 1230 nM

C#CC[C@H](c1nc2cc(Cl)ccc2c(=O)n1Nc1ccccc1)N(CCCN)C(=O)c1ccc(C)cc1 [Compound 75, N-(3-Amino-propyl)-N—[(R)-1-(7-chloro-4-oxo-3-phenylamino-3,4-dihydro-quinazolin-2-yl)-but-3-ynyl]-4-methyl-benzamide]
GI50 (A549; A549, 72 h): 2800 nM
IC50 (HsEg5 [2]): 90 nM
GI50 (NCI-H460; read-out: MTS NCI H460 GI50): 1500 nM

C#CC[C@H](c1nc2cc(Cl)ccc2c(=O)n1Nc1ccccc1)N(CCCN)C(=O)c1ccc(C)c(F)c1F [Compound 76, N-(3-Amino-propyl)-N—[(R)-1-(7-chloro-4-oxo-3-phenylamino-3,4-dihydro-quinazolin-2-yl)-but-3-ynyl]-2,3-difluoro-4-methyl-benzamide]
GI50 (A549; A549, 72 h): 1300 nM
IC50 (HsEg5 [2]): 130 nM
GI50 (NCI-H460; read-out: MTS NCI H460 GI50): 860 nM

C#CC[C@H](c1nc2cc(Cl)ccc2c(=O)n1Nc1ccccc1)N(CCCN)C(=O)c1c(OC)ccc(F)c1F [Compound 77]
GI50 (A549; A549, 72 h): 860 nM
IC50 (HsEg5 [2]): 70 nM
GI50 (NCI-H460; read-out: MTS NCI H460 GI50): 530 nM

C#CC[C@H](c1nc2cc(Cl)ccc2c(=O)n1Nc1ccccc1)N(CCCN)C(=O)c1ccc(OC)c(F)c1F [Compound 78]
GI50 (A549; A549, 72 h): 1450 nM
IC50 (HsEg5 [2]): 40 nM
GI50 (NCI-H460; read-out: MTS NCI H460 GI50): 700 nM

C#CC[C@H](c1nc2cc(Cl)ccc2c(=O)n1Nc1ccccc1)N(CCCN)C(=O)c1c(F)cc(Cl)cc1F [Compound 79]
GI50 (A549; A549, 72 h): 1300 nM
IC50 (HsEg5 [2]): 550 nM
GI50 (NCI-H460; read-out: MTS NCI H460 GI50): 430 nM

C#CC[C@H](c1nc2cc(Cl)ccc2c(=O)n1Nc1ccccc1)N(CCCN)C(=O)c1cc(F)cc(F)c1 [Compound 80, (R)—N-(3-Aminopropyl)-N-(1-(7-chloro-4-oxo-3-(phenylamino)-3,4-dihydroquinazolin-2-yl)but-3-ynyl)-3,5-difluorobenzamide]
GI50 (A549; A549, 72 h): 580 nM
IC50 (HsEg5 [2]): 90 nM
GI50 (NCI-H460; read-out: MTS NCI H460 GI50): 100 nM

C#CC[C@H](c1nc2cc(Cl)ccc2c(=O)n1Nc1ccccc1)N(CCCN)C(=O)c1cc(F)cc(F)c1F [Compound 81, (R)—N-(3-Aminopropyl)-N-(1-(7-chloro-4-oxo-3-(phenylamino)-3,4-dihydroquinazolin-2-yl)but-3-ynyl)-2,3,5-trifluorobenzamide]
GI50 (A549; A549, 72 h): 660 nM
IC50 (HsEg5 [2]): 160 nM
GI50 (NCI-H460; read-out: MTS NCI H460 GI50): 340 nM

C#CC[C@H](c1nc2cc(Cl)ccc2c(=O)n1Nc1ccccc1)N(CCCN)C(=O)c1cccc(F)c1F [Compound 82, (R)—N-(3-Aminopropyl)-N-(1-(7-chloro-4-oxo-3-(phenylamino)-3,4-dihydroquinazolin-2-yl)but-3-ynyl)-2,3-difluorobenzamide]
IC50 (HsEg5 [2]): 30 nM
